We go through one substance from article PMC9649612, “Molecular docking and biochemical validation of (-)-syringaresinol-4-O-β-D-apiofuranosyl-(1→2)-β-D-glucopyranoside binding to an allosteric site in monoamine transporters” (Frontiers in Pharmacology, 2022).

For assay [1], the target named is T1, hDAT S422T (S1 site mutant) (Homo sapiens, UniProt Q01959, S422T).
T1 construct: expressed in transfected cells; host or cells: HeLa
Description: APP+ transport in HeLa cells expressing hDAT mutant S422T. Format: cell-based. How it is done:
(§1) The mutants used for this study were constructed in the WT background carried by the expression plasmids for hSERT, hDAT, or hNET under the control of CMV promotor in pcDNA3.1 vector, respectively. All mutants were generated using the Mut Express II Fast Mutagenesis Kit (Vazyme) and confirmed by full-length DNA sequencing.
(§2) HeLa cells were cultured in Dulbecco’s Modified Eagle’s Medium supplemented with 10% fetal bovine serum, 100 units/ml penicillin, and 100 μg/ml streptomycin at 37°C in a humidified 5% CO2 incubator. Cells were plated in a 6-well culture plate and grown overnight. Cells at ∼70% confluence were transfected with hSERT, hDAT, or hNET cDNA in pcDNA3.1 by lipofectamine 2000. […] After grown for additional 12–16 h, the cells were assayed for APP^+ or ASP^+ fluorescence image acquisition.
(§3) The cells expressing WT or mutants of hSERT, hDAT, or hNET were wet mounted on polylysine coated glass slides in 12-well plates and applied for the indicated treatments. […] The extent of APP^+ accumulated in the cells was determined by confocal imaging analysis. ASP^+ binding to SERT in the cell membrane was measured with digitonin-permeabilized cells ([Li M. et al., 2022a]). […] After removing excess ASP^+ by rapid washing three times, ASP^+ binding was determined by confocal imaging analysis.
(§4) Images were analyzed using Zen Blue software. […]

The target of assay [2] is T2, hNET L563A (S2 site mutant) (Homo sapiens, UniProt P23975, L563A).
T2 construct: expressed in transfected cells; host or cells: HeLa
Put plainly: APP+ transport in HeLa cells expressing hNET mutant L563A. The format is cell-based. Conditions: intact HeLa cells, read-out: SAG IC50. The procedure:
as §1, §2, §3, §4

Assay [3] deals with T3, hDAT F320A (S2 site mutant) (Homo sapiens, UniProt Q01959, F320A).
T3 construct: expressed in transfected cells; host or cells: HeLa
Put plainly: APP+ transport in HeLa cells expressing hDAT mutant F320A. The format is cell-based. The procedure:
as §1, §2, §3, §4

For assay [4], the target named is T4, hSERT I172F (S1 site mutant) (Homo sapiens, UniProt P31645, I172F).
T4 construct: expressed in transfected cells; host or cells: HeLa
Description: APP+ transport in HeLa cells expressing hSERT mutant I172F. Format: cell-based. Conditions: 2 μM APP+ 5 min, intact HeLa cells, read-out: SAG IC50 for transport. The procedure: as §1, §2, §3, §4

Assay [5] concerns the target T5, hDAT W562A (S2 site mutant) (Homo sapiens, UniProt Q01959, W562A).
T5 construct: expressed in transfected cells; host or cells: HeLa
Put plainly: APP+ transport in HeLa cells expressing hDAT mutant W562A. The format is cell-based. The procedure:
as §1, §2, §3, §4

The target of assay [6] is T6, hSERT D328A (S2 site mutant) (Homo sapiens, UniProt P31645, D328A).
T6 construct: expressed in transfected cells; host or cells: HeLa (ATCC CCL-2), transient, pcDNA3.1
Put plainly: APP+ transport in HeLa cells expressing hSERT mutant D328A. Conditions: 2 μM APP+ 5 min, intact HeLa cells, read-out: SAG IC50 for transport. The format is cell-based. The procedure:
as §1, §2, §3, §4

Assay [7] concerns the target T7, hNET W559A (S2 site mutant) (Homo sapiens, UniProt P23975, W559A).
T7 construct: expressed in transfected cells; host or cells: HeLa
Description: APP+ transport in HeLa cells expressing hNET mutant W559A. As to conditions: intact HeLa cells, read-out: SAG IC50. Format: cell-based. The procedure: as §1, §2, §3, §4

In assay [8] the target is T8, hSERT S559A (S2 site mutant) (Homo sapiens, UniProt P31645, S559A).
T8 construct: expressed in transfected cells; host or cells: HeLa (ATCC CCL-2), transient, pcDNA3.1
Description: ASP+ binding in digitonin-permeabilized HeLa cells expressing hSERT S559A. Conditions: 10 μM ASP+, read-out: SAG IC50 for binding. The procedure:
as §1, §2, §3, §4

Where only a bound is given, the exact number is not on record here.

T5 sequence (Q01959 whole entry W562A): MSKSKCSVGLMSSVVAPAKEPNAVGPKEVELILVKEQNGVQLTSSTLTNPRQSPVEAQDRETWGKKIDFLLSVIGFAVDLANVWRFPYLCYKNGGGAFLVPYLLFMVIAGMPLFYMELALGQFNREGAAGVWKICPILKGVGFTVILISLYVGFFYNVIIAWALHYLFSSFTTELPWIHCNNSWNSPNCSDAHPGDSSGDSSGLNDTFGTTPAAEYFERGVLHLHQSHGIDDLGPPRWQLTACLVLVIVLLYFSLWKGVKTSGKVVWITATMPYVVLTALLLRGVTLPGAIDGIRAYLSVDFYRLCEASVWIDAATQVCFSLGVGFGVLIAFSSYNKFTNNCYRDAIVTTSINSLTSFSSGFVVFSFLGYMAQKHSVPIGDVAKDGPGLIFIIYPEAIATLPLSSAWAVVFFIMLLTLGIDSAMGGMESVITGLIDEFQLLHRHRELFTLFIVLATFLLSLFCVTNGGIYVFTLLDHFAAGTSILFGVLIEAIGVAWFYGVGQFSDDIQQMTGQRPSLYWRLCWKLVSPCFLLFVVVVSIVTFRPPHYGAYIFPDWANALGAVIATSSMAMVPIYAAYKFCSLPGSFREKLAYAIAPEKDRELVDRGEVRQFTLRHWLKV
T3 sequence (Q01959 whole entry F320A): as the sequence (Q01959 whole entry W562A) above, with F320A, A562W counted along it
T1 sequence (Q01959 whole entry S422T): as the sequence (Q01959 whole entry W562A) above, with S422T, A562W counted along it
T7 sequence (P23975 whole entry W559A): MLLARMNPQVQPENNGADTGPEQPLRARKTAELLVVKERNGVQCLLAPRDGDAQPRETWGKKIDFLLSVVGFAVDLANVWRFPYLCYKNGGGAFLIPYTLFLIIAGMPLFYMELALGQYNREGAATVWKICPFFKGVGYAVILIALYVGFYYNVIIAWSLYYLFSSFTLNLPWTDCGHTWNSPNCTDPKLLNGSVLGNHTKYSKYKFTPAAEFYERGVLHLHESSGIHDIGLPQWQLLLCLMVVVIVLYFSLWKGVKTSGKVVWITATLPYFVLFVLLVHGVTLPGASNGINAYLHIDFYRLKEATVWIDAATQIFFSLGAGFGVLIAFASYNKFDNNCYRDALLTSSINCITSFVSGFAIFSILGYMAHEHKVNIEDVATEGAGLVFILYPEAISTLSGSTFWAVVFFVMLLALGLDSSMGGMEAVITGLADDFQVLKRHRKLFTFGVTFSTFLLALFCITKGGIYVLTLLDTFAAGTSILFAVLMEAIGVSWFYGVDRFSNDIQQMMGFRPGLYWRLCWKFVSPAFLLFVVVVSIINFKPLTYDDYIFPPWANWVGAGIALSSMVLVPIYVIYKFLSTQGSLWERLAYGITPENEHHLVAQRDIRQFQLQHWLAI
T2 sequence (P23975 whole entry L563A): as the sequence (P23975 whole entry W559A) above, with A559W, L563A counted along it

By IC50 is commonly meant the midpoint of a concentration-inhibition curve. As to “(-)-Syringaresinol-4-O-β-D-apiofuranosyl-(1→2)-β-D-glucopyranoside [SAG]”, in assay [1] (hDAT S1 residue Ser422 replaced), the “Effect of mutation on SAG inhibition potency” value was “little effect”. The IC50 was 24.5 ± 1.4 µM in assay [1] (hDAT S422T (S1), intact HeLa cells, read-out: SAG IC50); 304 ± 12 µM in assay [2]; 16.8 ± 0.7 µM in assay [3] (hDAT F320A, intact HeLa cells, read-out: SAG IC50); 12.5 ± 0.97 µM in assay [4]; above 1 mM in assay [5] (hDAT W562A, intact HeLa cells, read-out: SAG IC50); 113 ± 5 µM in assay [6]. The IC50 is above 1 mM in assay [7] and 126 ± 8.1 µM in assay [8]. Further, the “Decrease in SAG IC50 compared with WT” value in assay [3] (hDAT F320A vs WT-hDAT) was around 50%. Moreover, the “Increase in SAG IC50 compared with WT” value in assay [5] (hDAT W562A vs WT-hDAT) is “more than 30 fold”.
